Experimental data published in patent publication US9593155B2, “Oxyntomodulin analogs” (priority 2009, dated 2017).
Values belong to the compound of their own block, whether it stands above or below them. *1 amine or outer side, *2 acyl side, *3 side chain or, on linkers, in order; H or OH if unused. Where a SMILES comes first, the peptide text is derived from it. Side-chain parts run from the residue outwards. [ ]: non-standard residue; d: D form. The star is where a group is joined. X3 = CC(C)CCC[C@@H](C)[C@H]1CC[C@H]2[C@@H]3CC=C4C[C@@H](OC(=O)CCOCCOCCOCCOCCNC(=O)C*)CC[C@]4(C)[C@H]3CC[C@]12C; γGlu = O=C(O)[C@H](CCC(=O)[*:2])N[*:1]; Palmitoyl = CCCCCCCCCCCCCCCC(=O)*

How the values were obtained:
[1] = biological target: T1, hGCGR (Homo sapiens, UniProt P47871); test: cell-based cAMP assay as described in WO2008101017 (Table 11), hGCGR
Source text: (§1) This example presents tables showing the in vitro potencies of various peptide analogs at the human GLP-1 receptor (hGLP-1R) and the human glucagon receptor (hGCGR).

[2] = tested on: human mast cell line LAD2; test: mast cell degranulation counterscreen, beta-hexosaminidase release; format: cell-based; conditions: LAD2 cells, 30 minutes; read-out: Degranulation potency EC50
Protocol: LAD2 cells (50,000 cells/well, 96-well plate) were incubated with compounds for 30 minutes. The degranulation of LAD2 cells was determined by quantification of the β-hexosaminidase released into the supernatants and in cell lysates after hydrolysis of 4-methylumbelliferyl-N-acetyl-β-D-glucosaminide. Results are expressed as percentage of β-hexosaminidase release, calculated as percent of total content.

[3] = pI of the peptide analogs; conditions: Table 10
[4] = biological target: T1, hGCGR; test: fluorescence cell based cAMP assay, CHO cells stably expressing GCGR; conditions: hGCGR + 20% plasma EC50, Table 10, 20% plasma
Protocol: We initially screened peptides in fluorescence cell based assays that measure production of cyclic-AMP (cAMP), using CHO cell lines stably expressing either recombinant human GLP-1R or human GCGR. Determination of Mouse and human GLP-1R and GCGR Agonist Activity was essentially as follows. CHO cells stably expressing mouse or human GLP-1R or GCGR were grown in Iscove's Modified Dulbecco's Medium (IMDM), 10% FBS, 1 mM L-glutamine, penicillin-streptomycin (100 μ/mL) and 750 μg G418/mL for three-four days before harvesting using Enzymefree Dissociation Media (EFDM, Specialty Media). […] The assay was terminated with the addition of the LANCE kit Detection buffer as per the manufacturer's instructions. The plates were held an additional hour at room temperature, then increasing cAMP levels were detected by a decrease in TR-FRET signal as measured in an EnVision counter (PerkinElmer) in comparison to a standard curve of cAMP as per the manufacturer's instructions. Data were analyzed using the linear and nonlinear regression analysis software, GraphPad Prism.
The in vitro potencies shown in Table 10 or Table 11 were determined from the results of assays that were similar to either the cell-based cAMP assays described herein above (Table 10) or the cell-based cAMP assays described in International Published Application No. WO2008101017, which is incorporated herein in its entirety, in particular the cell-based cAMP assays described therein (Table 11).

[5] = biological target: hGLP-1R (Homo sapiens, UniProt P43220); test: cell-based cAMP assay as described in WO2008101017 (Table 11), hGLP-1R
Source text: as §1

T1 sequence (P47871 26-477): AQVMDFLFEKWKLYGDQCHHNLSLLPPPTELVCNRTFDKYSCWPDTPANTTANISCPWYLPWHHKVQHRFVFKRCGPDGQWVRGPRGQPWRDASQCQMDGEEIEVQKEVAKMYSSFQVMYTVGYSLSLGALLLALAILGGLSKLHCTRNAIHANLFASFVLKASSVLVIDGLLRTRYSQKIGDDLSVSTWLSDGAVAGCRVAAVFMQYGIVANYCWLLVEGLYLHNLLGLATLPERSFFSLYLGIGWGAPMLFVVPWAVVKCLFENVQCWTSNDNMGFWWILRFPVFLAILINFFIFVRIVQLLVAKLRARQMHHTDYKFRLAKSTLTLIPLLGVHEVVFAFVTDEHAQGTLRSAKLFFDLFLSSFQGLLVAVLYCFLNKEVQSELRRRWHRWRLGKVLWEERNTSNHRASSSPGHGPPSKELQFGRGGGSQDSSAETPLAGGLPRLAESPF
hGLP-1R, sequence (P43220 24-463): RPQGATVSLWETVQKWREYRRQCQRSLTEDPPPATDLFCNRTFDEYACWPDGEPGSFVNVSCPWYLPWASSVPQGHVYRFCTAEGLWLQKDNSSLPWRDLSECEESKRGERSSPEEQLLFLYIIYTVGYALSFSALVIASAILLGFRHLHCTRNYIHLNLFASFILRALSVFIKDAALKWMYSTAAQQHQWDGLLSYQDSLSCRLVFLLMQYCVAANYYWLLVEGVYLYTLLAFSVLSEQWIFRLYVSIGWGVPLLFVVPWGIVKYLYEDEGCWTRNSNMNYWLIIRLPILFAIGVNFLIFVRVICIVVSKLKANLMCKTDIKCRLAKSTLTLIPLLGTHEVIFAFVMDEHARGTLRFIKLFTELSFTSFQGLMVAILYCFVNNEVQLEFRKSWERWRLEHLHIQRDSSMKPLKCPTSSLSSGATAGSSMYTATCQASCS

EC50 [1]: 0.006 nM
SMILES: CCCCCCCCCCCCCC(=O)N[C@@H](CCC(=O)N[C@@H](CCC(=O)NCCCC[C@H](NC(=O)[C@H](CC(=O)O)NC(=O)[C@H](CO)NC(=O)[C@@H](NC(=O)[C@H](Cc1ccccc1)NC(=O)[C@@H](NC(=O)CNC(=O)[C@H](CCC(N)=O)NC(=O)[C@@H](CO)NC(=O)[C@@H](N)Cc1c[nH]cn1)[C@@H](C)O)[C@@H](C)O)C(=O)N[C@@H](CO)C(=O)N[C@@H](CCCCN)C(=O)N[C@@H](Cc1ccc(O)cc1)C(=O)N[C@@H](CC(C)C)C(=O)N[C@@H](CC(=O)O)C(=O)NC(C)(C)C(=O)N[C@@H](CCCNC(=N)N)C(=O)N[C@@H](CCCNC(=N)N)C(=O)N[C@@H](C)C(=O)N[C@@H](CCC(N)=O)C(=O)N[C@@H](CC(=O)O)C(=O)N[C@@H](Cc1ccccc1)C(=O)N[C@H](C(=O)N[C@@H](CCC(N)=O)C(=O)N[C@@H](Cc1c[nH]c2ccccc12)C(=O)N[C@@H](CC(C)C)C(=O)N[C@@H](CCSC)C(=O)N[C@@H](CC(N)=O)C(=O)N[C@H](C(=O)N[C@@H](CCCCN)C(=O)N[C@@H](CCC(N)=O)C(=O)O)[C@@H](C)O)C(C)C)C(=O)O)C(=O)O [MM121]

SMILES: CCCCCCCCCCCCCCCC(=O)N[C@@H](CCC(=O)N[C@@H](CCC(=O)NCCCC[C@H](NC(=O)[C@H](CC(=O)O)NC(=O)[C@H](CO)NC(=O)[C@@H](NC(=O)[C@H](Cc1ccccc1)NC(=O)[C@@H](NC(=O)CNC(=O)[C@H](CCC(N)=O)NC(=O)[C@@H](CO)NC(=O)[C@@H](N)Cc1c[nH]cn1)[C@@H](C)O)[C@@H](C)O)C(=O)N[C@@H](CO)C(=O)N[C@@H](CCCCN)C(=O)N[C@@H](Cc1ccc(O)cc1)C(=O)N[C@@H](CC(C)C)C(=O)N[C@@H](CC(=O)O)C(=O)N[C@@H](CCC(=O)O)C(=O)N[C@@H](CCCNC(=N)N)C(=O)N[C@@H](CCCNC(=N)N)C(=O)N[C@@H](C)C(=O)N[C@@H](CCC(N)=O)C(=O)N[C@@H](CC(=O)O)C(=O)N[C@@H](Cc1ccccc1)C(=O)N[C@H](C(=O)N[C@@H](CCC(N)=O)C(=O)N[C@@H](Cc1c[nH]c2ccccc12)C(=O)N[C@@H](CC(C)C)C(=O)N[C@@H](CCSC)C(=O)N[C@@H](CC(N)=O)C(=O)N[C@H](C(=O)N[C@@H](CCCCN)C(N)=O)[C@@H](C)O)C(C)C)C(=O)O)C(=O)O [OXM411] (H-H[dS]QGTFTSDK([γGlu-γGlu-Palmitoyl])SKYLDERRAQDFVQWLMNTK-NH2; N-terminus assumed)
EC50 [2]: > 10000 nM
pI [3]: 5.4

EC50 [1]: 0.004 nM
SMILES: CCCCCCCCCCCCCCCCCC(=O)N[C@@H](CCC(=O)N[C@@H](CCC(=O)NCCCC[C@H](NC(=O)[C@H](CC(=O)O)NC(=O)[C@H](CO)NC(=O)[C@@H](NC(=O)[C@H](Cc1ccccc1)NC(=O)[C@@H](NC(=O)CNC(=O)[C@H](CCC(N)=O)NC(=O)[C@@H](CO)NC(=O)[C@@H](N)Cc1c[nH]cn1)[C@@H](C)O)[C@@H](C)O)C(=O)N[C@@H](CO)C(=O)N[C@@H](CCCCN)C(=O)N[C@@H](Cc1ccc(O)cc1)C(=O)N[C@@H](CC(C)C)C(=O)N[C@@H](CC(=O)O)C(=O)NC(C)(C)C(=O)N[C@@H](CCCNC(=N)N)C(=O)N[C@@H](CCCNC(=N)N)C(=O)N[C@@H](C)C(=O)N[C@@H](CCC(N)=O)C(=O)N[C@@H](CC(=O)O)C(=O)N[C@@H](Cc1ccccc1)C(=O)N[C@H](C(=O)N[C@@H](CCC(N)=O)C(=O)N[C@@H](Cc1c[nH]c2ccccc12)C(=O)N[C@@H](CC(C)C)C(=O)N[C@@H](CCSC)C(=O)N[C@@H](CC(N)=O)C(=O)N[C@H](C(=O)N[C@@H](CCCCN)C(=O)N[C@@H](CCC(N)=O)C(=O)O)[C@@H](C)O)C(C)C)C(=O)O)C(=O)O [MM132]

SMILES: CCCCCCCCCCCCCCCC(=O)N[C@@H](CCC(=O)N[C@@H](CCC(=O)NCCCC[C@H](NC(=O)[C@H](C)NC(=O)[C@H](CCCNC(=N)N)NC(=O)[C@H](CCCNC(=N)N)NC(=O)[C@H](CCC(=O)O)NC(=O)[C@H](CC(=O)O)NC(=O)[C@H](CC(C)C)NC(=O)[C@H](Cc1ccc(O)cc1)NC(=O)[C@H](CCCCN)NC(=O)[C@H](CO)NC(=O)[C@H](Cc1ccc(O)cc1)NC(=O)[C@H](CC(=O)O)NC(=O)[C@H](CO)NC(=O)[C@@H](NC(=O)[C@H](Cc1ccccc1)NC(=O)[C@@H](NC(=O)CNC(=O)[C@H](CCC(N)=O)NC(=O)[C@@H](CO)NC(=O)[C@@H](N)Cc1c[nH]cn1)[C@@H](C)O)[C@@H](C)O)C(=O)N[C@@H](CC(=O)O)C(=O)N[C@@H](Cc1ccccc1)C(=O)N[C@H](C(=O)N[C@@H](CCC(N)=O)C(=O)N[C@@H](Cc1c[nH]c2ccccc12)C(=O)N[C@@H](CC(C)C)C(=O)N[C@@H](CCSC)C(=O)N[C@@H](CC(N)=O)C(=O)N[C@H](C(=O)N[C@@H](CCCCN)C(N)=O)[C@@H](C)O)C(C)C)C(=O)O)C(=O)O [OXM410] (H-H[dS]QGTFTSDYSKYLDERRAK([γGlu-γGlu-Palmitoyl])DFVQWLMNTK-NH2; N-terminus assumed)
EC50 [2]: > 10000 nM

SMILES: CCCCCCCCCCCCCCCC(=O)N[C@@H](CCC(=O)N[C@@H](CCC(=O)NCCCC[C@H](NC(=O)[C@H](C)NC(=O)[C@H](CCCNC(=N)N)NC(=O)[C@H](CCCNC(=N)N)NC(=O)[C@H](CO)NC(=O)[C@H](CC(=O)O)NC(=O)[C@H](CC(C)C)NC(=O)[C@H](Cc1ccc(O)cc1)NC(=O)[C@H](CCCCN)NC(=O)[C@H](CO)NC(=O)[C@H](Cc1ccc(O)cc1)NC(=O)[C@H](CC(=O)O)NC(=O)[C@H](CO)NC(=O)[C@@H](NC(=O)[C@H](Cc1ccccc1)NC(=O)[C@@H](NC(=O)CNC(=O)[C@H](CCC(N)=O)NC(=O)[C@@H](CO)NC(=O)[C@@H](N)Cc1c[nH]cn1)[C@@H](C)O)[C@@H](C)O)C(=O)N[C@@H](CC(=O)O)C(=O)N[C@@H](Cc1ccccc1)C(=O)N[C@H](C(=O)N[C@@H](CCC(N)=O)C(=O)N[C@@H](Cc1c[nH]c2ccccc12)C(=O)N[C@@H](CC(C)C)C(=O)N[C@@H](CCSC)C(=O)N[C@@H](CC(N)=O)C(=O)N[C@H](C(=O)N[C@@H](CCCCN)C(=O)N[C@@H](CCC(N)=O)C(=O)O)[C@@H](C)O)C(C)C)C(=O)O)C(=O)O [OXM408]
EC50 [2]: > 10000 nM

EC50 [4]: 0.3 nM
EC50 [5]: 0.026 nM
pI [3]: 5.5
SMILES: CCCCCCCCCCCCCCCC(=O)N[C@@H](CCC(=O)N[C@@H](CCC(=O)NCCCC[C@H](NC(=O)[C@H](CC(=O)O)NC(=O)[C@H](CO)NC(=O)[C@@H](NC(=O)[C@H](Cc1ccccc1)NC(=O)[C@@H](NC(=O)CNC(=O)[C@H](CCC(N)=O)NC(=O)[C@@H](CO)NC(=O)[C@@H](N)Cc1c[nH]cn1)[C@@H](C)O)[C@@H](C)O)C(=O)N[C@@H](CO)C(=O)N[C@@H](CCCCN)C(=O)N[C@@H](Cc1ccc(O)cc1)C(=O)N[C@@H](CC(C)C)C(=O)N[C@@H](CC(=O)O)C(=O)NC(C)(C)C(=O)N[C@@H](CCCNC(=N)N)C(=O)N[C@@H](CCCNC(=N)N)C(=O)N[C@@H](C)C(=O)N[C@@H](CCC(N)=O)C(=O)N[C@@H](CC(=O)O)C(=O)N[C@@H](Cc1ccccc1)C(=O)N[C@H](C(=O)N[C@@H](CCC(N)=O)C(=O)N[C@@H](Cc1c[nH]c2ccccc12)C(=O)N[C@@H](CC(C)C)C(=O)N[C@@H](CCSC)C(=O)N[C@@H](CC(N)=O)C(=O)N[C@H](C(=O)N[C@@H](CCCCN)C(=O)N[C@@H](CCC(N)=O)C(=O)O)[C@@H](C)O)C(C)C)C(=O)O)C(=O)O [OXM418]

SMILES: CSCC[C@H](NC(=O)[C@H](CC(C)C)NC(=O)[C@H](Cc1c[nH]c2ccccc12)NC(=O)[C@H](CCC(N)=O)NC(=O)[C@@H](NC(=O)[C@H](Cc1ccccc1)NC(=O)[C@H](CC(=O)O)NC(=O)[C@H](CCC(N)=O)NC(=O)[C@H](C)NC(=O)[C@H](C)NC(=O)[C@H](CCC(=O)O)NC(=O)[C@H](CO)NC(=O)[C@H](CC(=O)O)NC(=O)[C@H](CC(C)C)NC(=O)[C@H](Cc1ccc(O)cc1)NC(=O)[C@H](CCCCN)NC(=O)[C@H](CO)NC(=O)[C@H](Cc1ccc(O)cc1)NC(=O)[C@H](CC(=O)O)NC(=O)[C@H](CO)NC(=O)[C@@H](NC(=O)[C@H](Cc1ccccc1)NC(=O)[C@@H](NC(=O)CNC(=O)[C@H](CCC(N)=O)NC(=O)[C@@H](CO)NC(=O)[C@@H](N)Cc1c[nH]cn1)[C@@H](C)O)[C@@H](C)O)C(C)C)C(=O)N[C@@H](CC(N)=O)C(=O)N[C@H](C(=O)N[C@@H](CCCCN)C(=O)N[C@@H](CSCC(=O)NCCOCCOCCOCCOCCC(=O)O[C@H]1CC[C@@]2(C)C(=CC[C@H]3[C@@H]4CC[C@H]([C@H](C)CCCC(C)C)[C@@]4(C)CC[C@@H]32)C1)C(N)=O)[C@@H](C)O [OXM303] (H-H[dS]QGTFTSDYSKYLDSEAAQDFVQWLMNTKC(X3)-NH2; N-terminus assumed)
EC50 [2]: 100 nM
